Measurements as given in patent US4556677A, “Alkane and alkene derivatives and their use” (Farmos Group Ltd., priority 1981, dated 1985).

How the values were obtained:
immature mouse uterus [1] = experiment: antiestrogenic effect in vivo, inhibition of oestradiol induced uterus weight increase in immature mice
Method: (§1) The estrogen-antiestrogen (progesterone-antiprogesterone) effect in vivo was determined as follows:
The antiestrogenic effects of the molecules were determined in a similar manner in immature mice. In this case, the ability of the molecules to inhibit estrogen-induced uterus weight increase was investigated, too.
The compound 1 at a dose of 0.5 mg/kg caused a 50% inhibition of oestradiol induced effect on mouse uterus.
(§2) In Table 2 a summary of the oestrogenic/antioestrogenic and progestanic/antiprogestanic effect of some of the compounds can be seen. The percentages refer to increase/reduction in mice uterus weights.

[2] = test system: MCF-7 human mammary adenocarcinoma cell line; experiment: anti-tumour effect in vitro, growth of MCF-7 cells (bioluminescence ATP assay); type: cell-based; conditions: Homo sapiens, MCF7; MCF-7, Table 3; read-out: Antitumour effect (IC50 = concentration of compound where 50% inhibition of cell growth could be seen)
Method: The anti-tumour effect was studied in vitro as follows:
The growth of MCF-7 cell line (human mammary adenocarcinoma, known to be estrogen-dependent) was evaluated in the presence or absence of estradiol, medroxyprogesterone acetate or the molecules to be investigated. Combinations of molecule plus estradiol and molecule plus medroxyprogesterone were also studied. The amount of living cells after 4 h, 24 h and 48 h incubations were determined by bioluminescence assay (intracellular ATP determination).
The antitumour effects of the compounds had been tested in vitro against MCF-7 human mammary adenocarcinoma cell line and in vivo against DMBA-induced rat mammary adenocarcinomas and transplantable mammary adenocarcinoma.
In table 3 the antitumour effects of certain compounds can be seen.

mouse uterus [3] = experiment: progestanic effect in vivo, reduction of mouse uterus weight; conditions: given alone
Method: as §1
(§3) The (anti)progestanic effects were studied in a similar manners as the estrogenic ones. Medroxyprogesterone acetate, which decreases uterus weight, was used as reference.
(§4) The progestanic and antiprogestanic effects of compounds were measured as described earlier. The compound No. 2 reduced the weight of mouse uterus by 49% compared to control while medroxyprogesterone acetate gave 40% reduction.
as §2

immature mouse uterus [4] = experiment: estrogenic effect in vivo, immature mouse uterus weight
Method: as §1
The estrogenic properties of the molecules were determined by administering the molecules, suspended in sesam oil, subcutaneously to 21 days old immature mice on three consecutive days. The mice were killed on the fourth day and the uterus was weighed. Estradiol (positive control) increases the weight of the uterus. The weight correlates with the estrogenic effect of the molecules.
The estrogenic effect of compounds of the invention as measured by their ability to increase the weight of immature mouse uterus was usually far less than that of oestradiol, the positive control. […] At the dose of 0.5 mg/kg the oestrogenic effect of compound 1, 7 and 8 were respectively 20%, 75% and 83% less and at the dose of 5 mg/kg the oestrogenic effect of compound 2 was 60% less than that of oestradiol 0.05 mg/kg.
as §2

mouse uterus [5] = experiment: antiprogestanic/synergistic effect in vivo, given together with medroxyprogesterone acetate, mouse uterus weight; conditions: vs 20% for the acetate alone
mouse uterus [6] = experiment: as above
Method: as §1, §3, §4, §2

estrogen receptors = target: T1, estrogen receptors (Rattus norvegicus, UniProt P06211); experiment: affinity to estrogen receptors, competition with 3H-labelled 17-β-estradiol (dextran-charcoal method); type: binding; conditions: rat uterus cytosol, Table 1; read-out: Affinity (concentration of compound where 50% competition (inhibition) with 3H-estradiol occurred)
T1 construct: rat uterus cytosol preparation; from tissue; host or cells: rat uterus cytosol
T1 sequence (P06211 1-600): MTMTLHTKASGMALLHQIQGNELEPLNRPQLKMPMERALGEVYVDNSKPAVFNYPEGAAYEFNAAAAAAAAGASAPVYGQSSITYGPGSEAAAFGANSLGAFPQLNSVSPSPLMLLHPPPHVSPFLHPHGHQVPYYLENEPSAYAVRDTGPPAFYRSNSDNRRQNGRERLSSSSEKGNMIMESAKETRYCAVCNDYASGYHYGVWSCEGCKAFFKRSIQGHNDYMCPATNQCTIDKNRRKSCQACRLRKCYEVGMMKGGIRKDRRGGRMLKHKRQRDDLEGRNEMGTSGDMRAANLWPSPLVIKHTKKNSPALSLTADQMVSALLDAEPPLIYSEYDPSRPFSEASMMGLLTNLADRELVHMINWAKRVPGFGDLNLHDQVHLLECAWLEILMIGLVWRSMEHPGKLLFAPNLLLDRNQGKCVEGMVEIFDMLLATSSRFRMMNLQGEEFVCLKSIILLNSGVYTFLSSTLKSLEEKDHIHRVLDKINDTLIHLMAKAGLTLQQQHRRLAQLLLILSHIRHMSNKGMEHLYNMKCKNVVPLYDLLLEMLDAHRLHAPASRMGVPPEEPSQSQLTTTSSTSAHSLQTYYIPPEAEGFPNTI
Method: The affinity to estrogen receptors was determined by the ability of the molecules to compete with ^3 H-labelled 17-β-estradiol in rat uterus cytosol preparation. After incubation, receptor-bound and receptor-unbound ligands were separated by a known dextrancharcoal method. (Korenman, S. G.: "Comparative binding affinity of estrogens and its relation to estrogenic potency". Steroids 13: 163-177, 1969). […] The results in table 1 are shown as follows: | with ^3 H--estradiol occurred

IC50 [2]: 1000 to 5000 nM
IC50 (estrogen receptors): 100 to 1000 nM
SMILES: CC/C(=C(\c1ccccc1)c1ccc(OCCN(CC)CC)cc1)C1CCCC1 [Compound 8, (Z)-2-cyclopentyl-1-[p-(N,N-diethyl-2-aminoethoxy)phenyl]-1-phenyl-1-butene]
inhibition of oestradiol induced effect on mouse uterus (immature mouse uterus [1]; 5 mg/kg): 30%
Given with oestradiol: reduction in mice uterus weight (immature mouse uterus [1]; Table 2, 5 mg/kg, with oestradiol 0.05 mg/kg): 32%
progestanic effect (in words) (mouse uterus [3]; 0.05 mg/kg): could be considered to be a progestanic one
decrease in uterus weight (mouse uterus [3]; 0.05 mg/kg (lowest dose)): 12%
oestrogenic effect, % less than that of oestradiol 0.05 mg/kg (immature mouse uterus [4]; 0.5 mg/kg, s.c., immature mice): 83%
estrogenic effect (in words) (immature mouse uterus [4]; immature mouse uterus weight): dose dependent
estrogenic effect at increased doses (in words) (immature mouse uterus [4]; increased doses (above 0.05 mg/kg), given alone): the estrogenic effect became evident
decrease in the weight of mouse uterus together with medroxyprogesterone acetate (mouse uterus [5]): 16%
Given with medroxyprogesterone acetate: reduction in mice uterus weight (mouse uterus [6]; Table 2, 0.5 mg/kg, with medroxyprogesterone acetate 0.06 mg/kg): 16%
effect with medroxyprogesterone acetate at higher doses (in words) (mouse uterus [6]; higher doses, together with medroxyprogesterone acetate): an antiprogestanic effect was achieved
antiprogestanic / synergistic effect with medroxyprogesterone acetate (in words) (mouse uterus [6]; together with medroxyprogesterone acetate): neither synergism nor inhibition of medroxyprogesterone acetate was seen
